The results in this text go back to ChEMBL document CHEMBL2396542, “Membrane anchoring γ-secretase modulators with terpene-derived moieties” (Bioorg Med Chem Lett, 2013).

Structures are written as SMILES.

For the first data set, the target named is T1, Presenilin-1 (Homo sapiens, UniProt P49768). Description: Modulation of human gamma-secretase presenilin-1 subunit expressed in CHO cells coexpressing human APP assessed as decrease in amyloid beta 40 generation after 24 hrs by ELISA. The class given is cell-based.
Conditions: not given; call rule not given here
On the technique in general: ELISA stands for enzyme-linked immunosorbent assay.
Consider `CCCCCCCCCCCOC(=O)C1(C)CCc2c(C)c(OCC(=O)O)c(C)c(C)c2O1` (configuration not stated), for which the IC50 is 23 µM.
The same measure, in the same setting: the figure for `CCCCCCCCCCCOc1c(C)c(C)c2c(c1C)CCC(C)(C(=O)O)O2` (configuration not stated) is over 50 µM.
Consider `Cc1c(C)c2c(c(C)c1OCC(=O)O)CCC(C)(CCC[C@H](C)CCC[C@H](C)CCCC(C)C)O2` (some centres not stated), for which the IC50 came to 24 µM.
Same read-out and setting: to `CC(C)=CCC/C(C)=C/CC/C(C)=C/COc1c(C)c(C)c2c(c1C)CCC(C)(C(=O)O)O2` (configuration not stated) belongs 39 µM; to `Cc1c(C)c2c(c(C)c1OCC(=O)O)CCC(C)(CCCC(C)CCCC(C)CCCC(C)C)O2` (configuration not stated), 26 µM; to `CCCCCCCCOC(=O)C1(C)CCc2c(C)c(OCC(=O)O)c(C)c(C)c2O1` (configuration not stated), 42 µM.
With `C/C(=C\Cn1c2ccc(Cl)cc2c2ccc(C(C)C(=O)O)cc21)CCC[C@H](C)CCC[C@H](C)CCCC(C)C` (some centres not stated), the IC50 is over 50 µM.
The same measure, in the same setting: the figure for `Cc1c(C)c2c(c(C)c1O)CCC(C)(CCCC(C)CCCC(C)CCCC(C)C)O2` (racemic) [alpha-TOCHOPHEROL] is over 100 µM.

Another data set has as its target T1, Presenilin-1. The experiment in a line: Modulation of human gamma-secretase presenilin-1 subunit expressed in CHO cells coexpressing human APP assessed as increase in amyloid beta 38 generation after 24 hrs by ELISA. The format is cell-based.
Conditions: not given
As a reminder, the EC50 is the midpoint of the concentration-response curve. Turning to `CCCCCCCCCCCOC(=O)C1(C)CCc2c(C)c(OCC(=O)O)c(C)c(C)c2O1` (configuration not stated), the EC50 is 5 µM.
With `CCCCCCCCCCCOc1c(C)c(C)c2c(c1C)CCC(C)(C(=O)O)O2` (configuration not stated), the EC50 was found to be 10 µM.
For the molecule `Cc1c(C)c2c(c(C)c1OCC(=O)O)CCC(C)(CCC[C@H](C)CCC[C@H](C)CCCC(C)C)O2` (some centres not stated), the EC50 came to 6 µM.
Regarding `CC(C)=CCC/C(C)=C/CC/C(C)=C/COc1c(C)c(C)c2c(c1C)CCC(C)(C(=O)O)O2` (configuration not stated), the 50% effective concentration (EC50) was 8 µM.
Same read-out and setting: the figure for `Cc1c(C)c2c(c(C)c1OCC(=O)O)CCC(C)(CCCC(C)CCCC(C)CCCC(C)C)O2` (configuration not stated) is 4 µM; for `CCCCCCCCOC(=O)C1(C)CCc2c(C)c(OCC(=O)O)c(C)c(C)c2O1` (configuration not stated) it is 11 µM; for `C/C(=C\Cn1c2ccc(Cl)cc2c2ccc(C(C)C(=O)O)cc21)CCC[C@H](C)CCC[C@H](C)CCCC(C)C` (some centres not stated) it is over 50 µM.
For the molecule `Cc1c(C)c2c(c(C)c1O)CCC(C)(CCCC(C)CCCC(C)CCCC(C)C)O2` (racemic) [alpha-TOCHOPHEROL], the concentration for a half-maximal effect (EC50) was over 100 µM.

System in the next data set: not listed separately
Description: Micelle formation by compound at 100 uM by dynamic light scattering assay. The class given is physicochemical.
Conditions: not given
In the case of `CCCCCCCCCCCOc1c(C)c(C)c2c(c1C)CCC(C)(C(=O)O)O2` (configuration not stated), the result was Active.

System in a further data set: not listed separately
Description: Micelle aggregation by compound at 100 uM by dynamic light scattering assay. The format is physicochemical.
Conditions: not given
For `CCCCCCCCCCCOc1c(C)c(C)c2c(c1C)CCC(C)(C(=O)O)O2` (configuration not stated), the outcome was Active.

System in another data set: not listed separately
The experiment in a line: Micelle formation by compound at 5 to 100 uM by dynamic light scattering assay. The format is physicochemical.
Conditions: not given
For `CCCCCCCCCCCOC(=O)C1(C)CCc2c(C)c(OCC(=O)O)c(C)c(C)c2O1` (configuration not stated), the Activity result was “Not Active”.
Same read-out and setting: to `CCCCCCCCCCCOc1c(C)c(C)c2c(c1C)CCC(C)(C(=O)O)O2` (configuration not stated) belongs “Not Active”.
Regarding `Cc1c(C)c2c(c(C)c1OCC(=O)O)CCC(C)(CCC[C@H](C)CCC[C@H](C)CCCC(C)C)O2` (some centres not stated), the Activity result is “Not Active”.
Still for that read-out and setting: to `CC(C)=CCC/C(C)=C/CC/C(C)=C/COc1c(C)c(C)c2c(c1C)CCC(C)(C(=O)O)O2` (configuration not stated) belongs “Not Active”; to `Cc1c(C)c2c(c(C)c1OCC(=O)O)CCC(C)(CCCC(C)CCCC(C)CCCC(C)C)O2` (configuration not stated), “Not Active”; to `CCCCCCCCOC(=O)C1(C)CCc2c(C)c(OCC(=O)O)c(C)c(C)c2O1` (configuration not stated), “Not Active”.
The same measure, in the same setting: to `C/C(=C\Cn1c2ccc(Cl)cc2c2ccc(C(C)C(=O)O)cc21)CCC[C@H](C)CCC[C@H](C)CCCC(C)C` (some centres not stated) belongs “Not Active”.

System in a further data set: not listed separately
Description: Micelle aggregation by compound at 5 to 100 uM by dynamic light scattering assay.
Conditions: not given
The format is physicochemical.
Take `CCCCCCCCCCCOC(=O)C1(C)CCc2c(C)c(OCC(=O)O)c(C)c(C)c2O1` (configuration not stated): the Activity result is listed as “Not Active”.
Take `CCCCCCCCCCCOc1c(C)c(C)c2c(c1C)CCC(C)(C(=O)O)O2` (configuration not stated): the Activity result is listed as “Not Active”.
On to `Cc1c(C)c2c(c(C)c1OCC(=O)O)CCC(C)(CCC[C@H](C)CCC[C@H](C)CCCC(C)C)O2` (some centres not stated), for which the Activity result is on record as “Not Active”.
Still for that read-out and setting: to `CC(C)=CCC/C(C)=C/CC/C(C)=C/COc1c(C)c(C)c2c(c1C)CCC(C)(C(=O)O)O2` (configuration not stated) belongs “Not Active”.
For the molecule `Cc1c(C)c2c(c(C)c1OCC(=O)O)CCC(C)(CCCC(C)CCCC(C)CCCC(C)C)O2` (configuration not stated), the Activity result is “Not Active”.
On the same count and under the same terms, the entry for `CCCCCCCCOC(=O)C1(C)CCc2c(C)c(OCC(=O)O)c(C)c(C)c2O1` (configuration not stated) is “Not Active”; for `C/C(=C\Cn1c2ccc(Cl)cc2c2ccc(C(C)C(=O)O)cc21)CCC[C@H](C)CCC[C@H](C)CCCC(C)C` (some centres not stated) it is “Not Active”.

A further data set addresses T1, Presenilin-1. The experiment in a line: Modulation of human gamma-secretase presenilin-1 subunit expressed in CHO cells coexpressing human APP assessed as increase in amyloid beta 38 generation at EC50 after 24 hrs by ELISA relative to control. The class given is cell-based.
Conditions: not given
For `CCCCCCCCCCCOC(=O)C1(C)CCc2c(C)c(OCC(=O)O)c(C)c(C)c2O1` (configuration not stated), the Activity was found to be 100%.
`CCCCCCCCCCCOc1c(C)c(C)c2c(c1C)CCC(C)(C(=O)O)O2` (configuration not stated): the Activity came to 65%.
The same measure, in the same setting: to `Cc1c(C)c2c(c(C)c1OCC(=O)O)CCC(C)(CCC[C@H](C)CCC[C@H](C)CCCC(C)C)O2` (some centres not stated) belongs 55%.
For the molecule `CC(C)=CCC/C(C)=C/CC/C(C)=C/COc1c(C)c(C)c2c(c1C)CCC(C)(C(=O)O)O2` (configuration not stated), the Activity is 35%.
Still for that read-out and setting: the figure for `Cc1c(C)c2c(c(C)c1OCC(=O)O)CCC(C)(CCCC(C)CCCC(C)CCCC(C)C)O2` (configuration not stated) is 55%; for `CCCCCCCCOC(=O)C1(C)CCc2c(C)c(OCC(=O)O)c(C)c(C)c2O1` (configuration not stated) it is 60%.

The target of another data set is T1, Presenilin-1. The experiment in a line: Modulation of human gamma-secretase presenilin-1 subunit expressed in CHO cells coexpressing human APP assessed as decrease in amyloid beta 42 generation after 24 hrs by ELISA. The settings on record: read-out: IC50. The class given is cell-based.
In the case of `CCCCCCCCCCCOC(=O)C1(C)CCc2c(C)c(OCC(=O)O)c(C)c(C)c2O1` (configuration not stated), the IC50 was determined as 12 µM.
Regarding `CCCCCCCCCCCOc1c(C)c(C)c2c(c1C)CCC(C)(C(=O)O)O2` (configuration not stated), the IC50 amounted to 28 µM.
`Cc1c(C)c2c(c(C)c1OCC(=O)O)CCC(C)(CCC[C@H](C)CCC[C@H](C)CCCC(C)C)O2` (some centres not stated): the IC50 was found to be 11 µM.
As for `CC(C)=CCC/C(C)=C/CC/C(C)=C/COc1c(C)c(C)c2c(c1C)CCC(C)(C(=O)O)O2` (configuration not stated), the IC50 was 28 µM.
Still for that read-out and setting: to `Cc1c(C)c2c(c(C)c1OCC(=O)O)CCC(C)(CCCC(C)CCCC(C)CCCC(C)C)O2` (configuration not stated) belongs 12 µM; to `CCCCCCCCOC(=O)C1(C)CCc2c(C)c(OCC(=O)O)c(C)c(C)c2O1` (configuration not stated), 35 µM; to `C/C(=C\Cn1c2ccc(Cl)cc2c2ccc(C(C)C(=O)O)cc21)CCC[C@H](C)CCC[C@H](C)CCCC(C)C` (some centres not stated), 23 µM.
As to `Cc1c(C)c2c(c(C)c1O)CCC(C)(CCCC(C)CCCC(C)CCCC(C)C)O2` (racemic) [alpha-TOCHOPHEROL], the IC50 is over 100 µM.

Staying with this data set, now noted: read-out: pIC50 (converted).
Regarding `CCCCCCCCCCCOC(=O)C1(C)CCc2c(C)c(OCC(=O)O)c(C)c(C)c2O1` (configuration not stated), the IC50 was 31.6 µM.
For `CCCCCCCCCCCOc1c(C)c(C)c2c(c1C)CCC(C)(C(=O)O)O2` (configuration not stated), the IC50 is 31.6 µM.
Still for that read-out and setting: the figure for `Cc1c(C)c2c(c(C)c1OCC(=O)O)CCC(C)(CCC[C@H](C)CCC[C@H](C)CCCC(C)C)O2` (some centres not stated) is 31.6 µM; for `CC(C)=CCC/C(C)=C/CC/C(C)=C/COc1c(C)c(C)c2c(c1C)CCC(C)(C(=O)O)O2` (configuration not stated) it is 31.6 µM.
On the same count and under the same terms, to `Cc1c(C)c2c(c(C)c1OCC(=O)O)CCC(C)(CCCC(C)CCCC(C)CCCC(C)C)O2` (configuration not stated) belongs 31.6 µM.
Still for that read-out and setting: to `C/C(=C\Cn1c2ccc(Cl)cc2c2ccc(C(C)C(=O)O)cc21)CCC[C@H](C)CCC[C@H](C)CCCC(C)C` (some centres not stated) belongs 39.8 µM.
